Key:
[1] = tested on: HEK293F cells; test: EGFP expression from 6xATF6 promoter constructs with and without XBP1 intron after 2 mM DTT; type: cell-based, human
Experimental: For this study two constructs were prepared: • 1) 6×ATF6 elements (having the sequence TGACGTGCT) upstream of the CMV-minimal promoter (CMV-MP) and EGFP; this construct was named SYNP-ATF6-01 (see below, SEQ ID NO: 30). • 2) 6×ATF6 elements upstream of the CMV-MP and EGFP with XBP1 intron insertion; this construct was named SYNP-ATF6-02 (see below, SEQ ID NO: 31).
HEK293F cells were used in this study. All growth conditions, transfections and analyses were carried out as described in Example 1.
24 well transfections were set-up as described above. Each condition was performed in duplicate/triplicate. 24 hrs after transfection the cells were treated with either 2 mM DTT, to induce the UPR, or by mock treatment with an equivalent volume of water. 1, 3, 5 and 24 hrs after treatment of the cells GFP fluorescence was measured as previously described.
The ratio of GFP fluorescence to the control plasmid was calculated before and after induction.

[2] = tested on: HEK293F cells; test: EGFP expression from ATF6 constructs induced by wtAAV production; type: cell-based, human
Experimental: In this experiment transfections were carried out in 24-well plates as previously described. The ATF6 plasmids (SYNP-ATF6-01 and SYNP-ATF6-02 constructs in the pMA-RQ vector) were transfected into HEK293F cells (using MAX reagent, as above) and after 24 hrs GFP was measured. After GFP measurement the same cells were transfected with the plasmids for wtAAV production pGRG25AAV2 (provided by Adrien Savvy) and pHelper plasmid from Takara/Clonetech in a 1:1 ratio. EGFP fluorescence was then measured after 1, 3, 5 and 24 hrs (FIGS. 7 and 8—not all data is shown). Both plasmids are required for wtAAV production, with the pGRG25AAV2 providing the wtAAV2 genome and the pHelper plasmid providing the E2, VA and E4 helper functions required for virus replication.
This confirmed successful AAV expression. Zs green is a variant of eGFP and as such GFP measurement was carried out on these cells as previously described.

SYNP-ATF6-02: 6×ATF6 elements upstream of the CMV-MP and EGFP with XBP1 intron insertion (SEQ ID NO: 31)
GFP expression after induction, ratio to CMV-IE ([1]; 2 mM DTT, 3 independent experiments): 4 times the level of CMV-IE
background level of GFP fluorescence ([1]; before DTT, raw data): practically zero
background level of EGFP before wtAAV production [2]: zero

From patent US11492618B2, “Expression control using a regulatable intron” (ASKLEPIOS BIOPHARMACEUTICAL, INC., priority 2017, dated 2022)
